Measurements: ChEMBL document CHEMBL1212876, “Characterization of new PPARgamma agonists: benzimidazole derivatives-importance of positions 5 and 6, and computational studies on the binding mode” (Bioorg Med Chem, 2010)

Assays:
[1] = molecular target: T1, Peroxisome proliferator-activated receptor gamma (Homo sapiens, UniProt P37231)
T1 sequence (P37231 whole entry): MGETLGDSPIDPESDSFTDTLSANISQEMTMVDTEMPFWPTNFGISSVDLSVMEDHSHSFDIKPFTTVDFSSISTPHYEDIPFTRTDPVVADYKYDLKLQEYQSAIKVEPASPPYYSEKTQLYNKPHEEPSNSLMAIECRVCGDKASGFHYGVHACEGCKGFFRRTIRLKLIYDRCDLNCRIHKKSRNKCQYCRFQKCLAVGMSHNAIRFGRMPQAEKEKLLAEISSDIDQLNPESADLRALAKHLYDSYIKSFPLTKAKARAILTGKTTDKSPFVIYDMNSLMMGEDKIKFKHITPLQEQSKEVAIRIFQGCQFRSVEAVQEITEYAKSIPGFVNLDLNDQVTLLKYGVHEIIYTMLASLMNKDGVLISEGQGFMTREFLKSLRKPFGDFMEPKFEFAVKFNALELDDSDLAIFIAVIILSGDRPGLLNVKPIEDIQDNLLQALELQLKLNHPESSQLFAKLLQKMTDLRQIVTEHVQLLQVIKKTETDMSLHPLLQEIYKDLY
Description: Activation of Gal4-tagged human PPARgamma expressed in CHO cells by luciferase reporter gene assay

[2] = Induction of adipocyte differentiation in mouse 3T3-L1 cells at 10 uM

Question: What does the source list for `CCCc1nc2ccc(C(O)c3ccccc3)cc2n1Cc1ccc(-c2ccccc2C(=O)O)cc1` (stereo not given)?
Answer: EC50 [1]: 3500 nM; Activity [2]: 88%

Question: With `CCCc1nc2cc(C(=O)c3ccccc3)ccc2n1Cc1ccc(-c2ccccc2C(=O)O)cc1` as the compound, how does the EC50 [1] read?
Answer: 580 nM

Question: And the Activity [2]?
Answer: 104%

Question: With `CCCc1nc2cc(Br)ccc2n1Cc1ccc(-c2ccccc2C(=O)O)cc1` as the compound, how does the Activity [2] read?
Answer: 103%

Question: Which Activity [2] does the source give for `CCc1ccc(CCOc2ccc(CC3SC(=O)NC3=O)cc2)nc1` (stereo not given) [PIOGLITAZONE] here?
Answer: 100%

Question: With `CCCc1nc2ccc(Br)cc2n1Cc1ccc(-c2ccccc2C(=O)O)cc1` as the compound, how does the EC50 [1] read?
Answer: 470 nM

Question: What about the Activity [2] of the same compound?
Answer: 102%

Question: Which results are given for `CCCc1nc2c(C)cc(-c3nc4ccccc4n3C)cc2n1Cc1ccc(-c2ccccc2C(=O)O)cc1`?
Answer: EC50 [1]: 3400 nM; Activity [2]: 70%

Question: For `CCCc1nc2cc(Br)c(Br)cc2n1Cc1ccc(-c2ccccc2C(=O)O)cc1`, which EC50 [1] is on record?
Answer: 400 nM

Question: What about the Activity [2] of the same compound?
Answer: 74%

Question: Which results are given for `CCCc1nc2ccc(C(=O)c3ccccc3)cc2n1Cc1ccc(-c2ccccc2C(=O)O)cc1`?
Answer: EC50 [1]: 620 nM; Activity [2]: 97%

Question: For `CCCc1nc2cc3ccccc3cc2n1Cc1ccc(-c2ccccc2C(=O)O)cc1`, which EC50 [1] is on record?
Answer: 260 nM

Question: What about the Activity [2] of the same compound?
Answer: 105%

Question: What does the source list for `CCCc1nc2cc(C(O)c3ccccc3)ccc2n1Cc1ccc(-c2ccccc2C(=O)O)cc1` (stereo not given)?
Answer: EC50 [1]: 2900 nM; Activity [2]: 100%

Question: Which results are given for `CCCc1nc2ccccc2n1Cc1ccc(-c2ccccc2C(=O)O)cc1`?
Answer: EC50 [1]: 1900 nM; Activity [2]: 67%
